# Values of other authors in patent US20220313663A1, “ELTROMBOPAG DOSING REGIMEN” (NOVARTIS PHARMACEUTICALS CORPORATION, priority 2019, published 2022).
# Settings: subjects with Asian ancestry compared to the non-Asian population
smiles,measurement,value
CC1=NN(c2ccc(C)c(C)c2)C(=O)/C1=N\Nc1cccc(-c2cccc(C(=O)O)c2)c1O [eltrombopag],eltrombopag clearance (CL/F),lower
